Reference: PMC12147034, “Identification of alkynyl nicotinamide HSN748 as a RET solvent-front mutant inhibitor with intracranial efficacy” (RSC Medicinal Chemistry, 2025)
Read-outs that look alike come from different tables or passages of the source.

Legend:
[1] = tested on: IMR-90 human lung fibroblasts; test: Cell viability in IMR-90 fibroblasts (5 days); type: cell-based; conditions: non-cancerous cells, Fig. S4
Description: The TEL-VEGFR2 cDNA was then subcloned into pLentP lentiviral vector.[21] and BaF3/TEL-VEGFR2 (B/TV) cells were generated by infecting BaF3 cells with the lentiviral TEL-VEGFR2 as described. Cell viability assay was performed using CellTiter-Glo reagent (G7573, Promega, Madison, WI, USA) after 3 days of drug treatment as described for BaF3-derived cells and 5 days for IMR-90 cells.
(§1) (A) IMR-90 normal human lung fibroblast cells were plated in 96-well plates and treated with indicated drugs for 5 days. (B) The non-transformed, IL-3-dependent BaF3 cells were cultured in medium with 0.5 nM mouse IL-3 in 96-well plates and treated as in (A) for 3 days. Viable cells were then determined using CellTiter-glo reagent. Data were from two triplicate experiments.
(§2) (1 picture or pasted object on this page, not shown here)

[2] = tested on: parental BaF3 cells; test: Cell viability in parental IL-3-dependent BaF3 cells (3 days); type: cell-based; conditions: Fig. S4
Description: as §1, §2

[3] = In vivo pharmacokinetics and brain distribution in mice; conditions: for Kp: CD1, mouse, brain and plasma, iv, 2 mg/kg
Description: For compound HSND19, male SD rats received an intravenous (IV) dose of 2 mg kg^−1 and an oral (PO) dose of 10 mg kg^−1. Both formulations were prepared in 10% DMSO/90% (20% HP-β-CD in water, w/w). Blood samples were collected at 0.25, 0.5, 1, 2, 4, 8, and 24 hours post-dosing. For compound HSN748, male SD rats received oral doses of 20, 50, and 100 mg kg^−1 in a solution of 0.5% methylcellulose (4000 cp)/0.1 M citrate buffer (pH 4.5). Blood samples were collected at 0.25, 0.5, 1, 2, 4, 6, 8, and 24 hours post-dosing. For IV administration, male CD1 mice received 2 mg kg^−1 prepared with 5% DMSO/5% Tween80/40% PEG400/50% PBS, with sampling at 0.083, 0.25, 0.5, 1, 2, 4, 8, and 24 hours.
In oral PK studies, blood samples were collected at each time point, with a total of 3 animals per study. In IV studies, animals were euthanized after blood collection at each time point to collect brain tissue, using a total of 21 animals per study. Whole blood samples were collected in heparinized tubes and centrifuged to separate plasma. Brain samples were rinsed, weighed, and immediately frozen in liquid nitrogen, and stored at −80 °C until analysis. The PK studies were conducted by Pharmaron (Beijing, China). Animal procedures were performed in accordance with the Guidelines for Care and Use of Laboratory Animals of Pharmaron (Beijing, China) and approved by the Animal Ethics Committee of Pharmaron (Beijing, China).
The mean concentration-time profiles were analyzed using Phoenix WinNonlin (version 8.4; Certara USA, Inc., Princeton, NJ) to calculate standard PK parameters, including the area under the curve from zero to infinity (AUC), bioavailability (F), clearance, volume of distribution, and half-life (t1/2).

[4] = male, CD1, plasma, Mouse, IV, 2 mg kg^-1

With `CN1CCN(Cc2ccc(NC(=O)c3cncc(C#Cc4cnc5cccnn45)c3)cc2C(F)(F)F)CC1` [HSN748] as the compound, how does the “inhibitory activity in IMR-90 human lung fibroblasts” value [1] read?
Its value is “little inhibitory activity”.

And the “inhibitory activity in parental BaF3 cells” value [2]?
The value was “little inhibitory activity”.

And the AUCBrain ([3]; Mouse, IV, 2 mg kg^-1)?
The AUCBrain was 377 ng·h/mL.

And the “brain-to-plasma partition coefficient (Kp), AUCbrain/AUCPlasma” value ([3]; Mouse, IV, 2 mg kg^-1)?
The value was 0.42.

What about the peak brain concentrations ([3]; Mouse, IV, 2 mg kg^-1) of the same compound?
The peak brain concentrations was “exceeding 198 ng ml^-1”.

And the Kp ([3]; male, 2 mg kg^-1, read-out: brain exposure as % of total plasma exposure (AUCplasma))?
The Kp was roughly 0.42.

What about the Kp ([3]; male, 2 mg kg^-1, read-out: brain-to-plasma partition coefficient (Kp), AUCbrain/AUCPlasma) of the same compound?
The Kp was 0.4.

And the Cmax [3, 4]?
The Cmax was 513 ng/mL.

And the Tmax [3, 4]?
Its Tmax is 15 min.

What about the clearance [3, 4] of the same compound?
The clearance was 36.7 mL/min/kg.

And the half-life [3, 4]?
The half-life was 78 min.

What about the AUC ([3]; male, CD1, plasma, Mouse, IV, 2 mg kg^-1, read-out: AUCPlasma) of the same compound?
Its AUC is 907 ng·h/mL.

What about the Vd ([3]; male, CD1, plasma, Mouse, IV, 2 mg kg^-1, read-out: Vss) of the same compound?
Its Vd is 3.9 L/kg.
